Common to all, as to assay: UPLC rhamnosylation assay, Michaelis-Menten fit
Holding throughout (conditions): 0.1 mM UDP-rhamnose as co-substrate; pH 7.5, 37 °C

One assay deals with T1, CiRhaT-GD4x (UGT79A20).
T1 construct: full-length, 469 aa, MBP fusion (pMAL-c5X, tag removal not mentioned), E. coli Rosetta (DE3)
It is filed as biochemical, Chrysanthemum indicum.

Another assay has as its system T2, CnRhaT-HB2x (UGT79A23).
T2 construct: full-length, 469 aa, MBP fusion (pMAL-c5X, tag removal not mentioned), E. coli Rosetta (DE3)
It is filed as biochemical, Chrysanthemum nankingense.

The next assay deals with T3, CiRhaT-HB2x (UGT79A22).
T3 construct: full-length, 469 aa, MBP fusion (pMAL-c5X, tag removal not mentioned), E. coli Rosetta (DE3)
The class given is biochemical, Chrysanthemum indicum.

For another assay, the system named is T4, CiRhaT-JX4x (UGT79A21).
T4 construct: full-length, 469 aa, MBP fusion (pMAL-c5X, tag removal not mentioned), E. coli Rosetta (DE3)
The class given is biochemical, Chrysanthemum indicum.

Take `COc1ccc(-c2cc(=O)c3c(O)cc(O[C@@H]4O[C@H](CO)[C@@H](O)[C@H](O)[C@H]4O)cc3o2)cc1` [compound 1, acacetin-7-O-glucoside]: the Km is 14.2 ± 1.36 µM in the assay on CiRhaT-GD4x (UGT79A20), 9.45 ± 1.5 µM in the assay with CnRhaT-HB2x (UGT79A23), 8.71 ± 1.79 µM in the assay on CiRhaT-HB2x (UGT79A22) and 8.27 ± 0.984 µM in the assay with CiRhaT-JX4x (UGT79A21).
On the same counts, the results for `COc1ccc(-c2cc(=O)c3c(O)cc(O[C@@H]4O[C@H](CO)[C@@H](O)[C@H](O)[C@H]4O)cc3o2)cc1O` [compound 3, diosmetin-7-O-glucoside] are 12.9 ± 1.27 µM, 17.7 ± 2.82 µM, 9.35 ± 1.38 µM and 7.67 ± 0.809 µM.
On to `O=c1cc(-c2ccc(O)cc2)oc2cc(O[C@@H]3O[C@H](CO)[C@@H](O)[C@H](O)[C@H]3O)cc(O)c12` [compound 2, apigenin-7-O-glucoside], for which the Km came to 32.4 ± 5.9 µM in the assay with CiRhaT-GD4x (UGT79A20), 140 ± 32.1 µM with CnRhaT-HB2x (UGT79A23), 57.1 ± 5.34 µM with CiRhaT-HB2x (UGT79A22) and 45.3 ± 6.08 µM in the assay on CiRhaT-JX4x (UGT79A21).

Source of the values: article PMC9706480, “Rhamnosyltransferases involved in the biosynthesis of flavone rutinosides in Chrysanthemum species” (Plant Physiology, 2022).
